Numbers after ± are expanded uncertainties.
Conditions: Crystal, Calculated from knudsen effusion weight loss

[Br-].[Br-].[Zn+2] [zinc bromide]
Conditions | vapor or sublimation pressure [kPa]
452.5 K | 2.26e-05 ± 2.4e-06
452.8 K | 2.04e-05 ± 2.2e-06
453.1 K | 2.07e-05 ± 2.2e-06
453.6 K | 1.28e-05 ± 1.4e-06
469.4 K | 4.74e-05 ± 5e-06
472.1 K | 9.63e-05 ± 1e-05
472.7 K | 8.63e-05 ± 9.2e-06
473.8 K | 7.35e-05 ± 7.8e-06
492.8 K | 0.000262 ± 2.8e-05
493.1 K | 0.000181 ± 1.9e-05
493.2 K | 0.000217 ± 2.3e-05
493.9 K | 0.000252 ± 2.7e-05
511.2 K | 0.000691 ± 7.3e-05
511.3 K | 0.000577 ± 6.1e-05
513 K | 0.000684 ± 7.3e-05
513.1 K | 0.000719 ± 7.6e-05
528.9 K | 0.00158 ± 0.0002
530.2 K | 0.00192 ± 0.00025
532.9 K | 0.00201 ± 0.00026
533.9 K | 0.0019 ± 0.00024
551.6 K | 0.0051 ± 0.00071
552 K | 0.00505 ± 0.0007
552.7 K | 0.00453 ± 0.00062
552.8 K | 0.00521 ± 0.00072
568 K | 0.00978 ± 0.0014
570.3 K | 0.0106 ± 0.0016
572.3 K | 0.00997 ± 0.0014
574 K | 0.0126 ± 0.0019

[Cu][Br] [copper(1+) bromide]
Conditions | vapor or sublimation pressure [kPa]
528.8 K | 1.17e-05 ± 1.2e-06
530.1 K | 9.37e-06 ± 1e-06
532 K | 1.25e-05 ± 1.3e-06
551.4 K | 2.45e-05 ± 2.7e-06
551.6 K | 3.17e-05 ± 3.4e-06
553.5 K | 4.55e-05 ± 4.8e-06
570.8 K | 9.35e-05 ± 9.9e-06
572.6 K | 0.000104 ± 1.1e-05
573.5 K | 0.000113 ± 1.2e-05
592.1 K | 0.000235 ± 2.5e-05
593.8 K | 0.000273 ± 2.9e-05
594.6 K | 0.000301 ± 3.2e-05
611.9 K | 0.000512 ± 5.4e-05
614.9 K | 0.000595 ± 6.3e-05
618.1 K | 0.000705 ± 7.5e-05
633 K | 0.00115 ± 0.00014
634.1 K | 0.00121 ± 0.00015
635 K | 0.00109 ± 0.00013
655.2 K | 0.00229 ± 0.0003
656.8 K | 0.00229 ± 0.0003
658.2 K | 0.00269 ± 0.00035

Reference: the NIST ThermoML archive (doi:10.1016/j.tca.2014.08.003)
